According to patent US8815585B2, “Automated method and apparatus for embryonic stem cell culture” (Cellular Dynamics International, Inc., priority 2007, dated 2014):
Entries after “also recorded” stand apart in the source; their conditions may differ.

Experiments:
HES cells [1] = conditions: Watanabe et al. Nat Biotech (2007); cited from earlier work
HES cells [2] = test: Survival of HES cells after trypsin treatment, individualized and seeded in TeSR medium; type: cell-based, human; conditions: 0.1% trypsin; seeding onto Matrigel coated plates in TeSR medium
Source text: The inventors utilized the system described in Example 1 and developed procedures for passaging of HES cells that were based on simple liquid handling protocols. Recent innovations in splitting techniques allowed for efficient automation of this otherwise demanding manual procedure. Since HES cells require cell-cell contacts for survival in TeSR media, they needed to be seeded in clumps which required scraping of attached cells, a procedure which would be very hard to automate.
For automated passaging, the following procedure was developed: After retrieval of the mother plate from the incubator, the wash tool removes the spent media as described in aim 1. The 8-channel 200 μl pipetting tool MP200 is used to add […] of trypsin (0.1%). […] The cells are washed off the plate surface and mixed using the 8-channel MP200 tool by repetitive dispensing and aspiration. Cells are then dispensed to the daughter plates using the MP200 tool. The cells are then seeded 1 to 32 onto precoated Matrigel plates loaded from the stacker to the Biomek2000. […] The total surface area of the initially used Omnitray turned out to be too large for the throughput of the system at the stage of the next split once the inventors tested methods for passaging HES cells in aim 2. […]

HES cells [3] = test: Seeding and colony formation of individualized HES cells in 96-well plates; type: cell-based, human
Source text: For this purpose however the inventors plated 16,000 cells per well, which is a 5-fold higher seeding density, than in the regular propagation and maintenance of undifferentiated HES cells with the automated procedure.

O=S(=O)(c1cccc2cnccc12)N1CCNCC1 [HA-100]
ability to maintain HES cell growth (HES cells [1]): supports the ability of HA-100 to maintain HES cell growth | survival of HES cells after trypsin treatment (HES cells [2]): allow the survival of HES cells after trypsin treatment

Cc1cncc2cccc(S(=O)(=O)N3CCCNCC3C)c12 (stereo in doubt) [H-1152, (S)-(+)-2-Methyl-1-[(4-methyl-5-isoquinolinyl)sulfonyl]homopiperazine]
seeding of individualized HES cells in 96-well plates (HES cells [3]; 96-well plates): allows for very efficient seeding of individualized HES cells in 96-well plates; also recorded: allows for very efficient seeding of individualized human ES cells in 96-well plates | colony formation of HES cells from individualized cells (HES cells [3]; TeSR1 media): actively increased colony formation | survival of HES cells after trypsin treatment (HES cells [2]): allow the survival of HES cells after trypsin treatment
